Results as given in publication PMC7980952 (Clinical cancer research : an official journal of the …, 2019).
Entries after “also recorded” stand apart in the source; their conditions may differ. Like-named read-outs stand apart in the source and are kept apart here.

What was measured:
IDO = conditions: ref Siu et al. 2017; cited from earlier work
solid tumors = conditions: ref Nayak et al. 2018, cited from earlier work
preclinical tumor models = conditions: combination with anti-PD-L1 vs single agents; ref Spahn et al. 2015; cited from earlier work
[1] = in vivo
[2] = Phase Ib safety assessments: adverse events; conditions: in combination with atezolizumab
[3] = Navoximod plasma pharmacokinetics; assay type: in vivo, human; conditions: for PK profile (linearity, dose proportionality): 50–1000 mg BID oral, with atezolizumab; for Tmax: human, plasma, po, 50–1000 mg BID
IDO1 = assay: Plasma Kyn as peripheral biomarker of IDO1 activity; assay type: in vivo, human
[4] = tested on: locally advanced or metastatic solid tumors; assay: Tumor response by investigators per RECIST v1.1; assay type: in vivo, human; conditions: with atezolizumab; for ORR in IDO1 0 patients / ORR in PDL1 0 patients / ORR in PDL1 IHC 1/2/3 patients / ORR in IDO1 IHC 1/2/3 patients / ORR in all patients: expansion
melanoma = conditions: ref Long et al. 2018, cited from earlier work
[5] = Phase 1a, 22 patients with solid tumors

In the case of C[C@@H](C(=O)Nc1ccc(Cl)cc1)C1CCC(c2ccnc3ccc(F)cc23)CC1 (some centres unmarked) [BMS-986205], the “In vitro potency compared with epacadostat and navoximod” value (IDO) is given as “greater in vitro potency”.

In the case of O[C@H](C[C@H]1c2c(F)cccc2-c2cncn21)[C@H]1CC[C@H](O)CC1 [Navoximod], the “Clinical activity as a single agent” value (solid tumors; [5]) is listed as “limited clinical activity”, the “Tolerability as a single agent” value (solid tumors; [5]) is listed as “generally well-tolerated” and the “Hepatic adverse events, single agent” value (solid tumors) is listed as “Hepatic adverse events had been reported”. The “Activation of intratumoral CD8+ T cells and tumor growth inhibition” value (preclinical tumor models) was “more effectively activates intratumoral CD8+ T cells and inhibits tumor growth compared to either single agent alone”, the “Chromaturia, treatment-related AE” value ([1]; human) was 20% and the “Discontinuations due to treatment related AEs” value ([1]; human) was 9%. The “Fatigue, treatment-related AE” value ([1]; human) was 22%, the “Grade ≥ 3 treatment-related AEs” value ([1]; human) was 22% and the “Grade ≥ 3 treatment-related rash” value ([1]; human) was 9%. The “Patients who discontinued treatment due to rash” value ([1]; human) was 4%, the “Pink colored urine (chromaturia)” value ([1]; human) was “up to 20%” and the Rash overall ([1]; human) was “around 20%”. The “Rash, treatment-related AE” value ([1]; human) was 22%, the “Treatment related serious AEs” value ([1]; human) was 10% and the “Relationship between dose and incidence or severity of AEs” value [1] was “no clear relationship”. The “Tolerability of the combination” value [1] was “generally well-tolerated”, the MTD [2] was “not reached; also recorded: not identified; also recorded: No MTD was defined” and the “PK profile (linearity, dose proportionality)” value [3] was “linear PK profile; also recorded: dose-proportional and linear PK”. For the same compound, the “PK profile (linearity, dose proportionality)” value ([3]; listed as navoximod) was “dose-proportional and linear PK profile”, the Tmax ([3]; Tmax range) was 0.25 to 4 h and the Tmax ([3]; median Tmax) was ~1 h. The “PK in combination with atezolizumab compared with single agent” value ([3]; in vivo) was “consistent with single-agent PK observations”, the “Mean change in plasma Kyn from the pre-dose baseline” value (IDO1; patients receiving at least 200 mg navoximod) was “decreased at all post-dose timepoints beyond 1 hour” and the “Change in plasma Kyn” value (IDO1; relative to Cycle 1 Day 1 pre-dose levels) was “generally decreased with increasing doses”. The “Partial response (PR), best overall response” value ([4]; dose escalation, all patients (n=66)) was 9%, the “ORR in IDO1 0 patients” value ([4]; All Patients, n=19) was 0 (0%) Responders (%) and the “ORR in PDL1 0 patients” value ([4]; All Patients, n=27) was 0 (0%) Responders (%). The “ORR in PDL1 IHC 1/2/3 patients” value ([4]; All Patients, n=60) was 9 (15%) Responders (%), the “ORR in IDO1 IHC 1/2/3 patients” value ([4]; All Patients, n=68) was 9 (13%) Responders (%) and the “ORR in all patients” value ([4]; All Patients, n=91) was 10 (11%) Responders (%). The “ORR in IDO1 0 patients” value ([4]; Biopsy A (CIT naïve), n=3) was 0 (0%) Responders (%), the “ORR in PDL1 0 patients” value ([4]; Biopsy A (CIT naïve), n=5) was 0 (0%) Responders (%) and the “ORR in PDL1 IHC 1/2/3 patients” value ([4]; Biopsy A (CIT naïve), n=6) was 0 (0%) Responders (%). For the same compound, the “ORR in IDO1 IHC 1/2/3 patients” value ([4]; Biopsy A (CIT naïve), n=8) was 0 (0%) Responders (%), the “ORR in all patients” value ([4]; Biopsy A (CIT naïve), n=11) was 0 (0%) Responders (%) and the “ORR in IDO1 0 patients” value ([4]; Biopsy B (CIT naïve), n=4) was 0 (0%) Responders (%). For the same compound, the “ORR in PDL1 0 patients” value ([4]; Biopsy B (CIT naïve), n=4) was 0 (0%) Responders (%), the “ORR in IDO1 IHC 1/2/3 patients” value ([4]; Biopsy B (CIT naïve), n=8) was 1 (12%) Responders (%) and the “ORR in PDL1 IHC 1/2/3 patients” value ([4]; Biopsy B (CIT naïve), n=8) was 1 (12%) Responders (%). For the same compound, the “ORR in all patients” value ([4]; Biopsy B (CIT naïve), n=12) was 1 (8%) Responders (%), the “ORR in IDO1 0 patients” value ([4]; NSCLC (CIT naïve), n=8) was 0 (0%) Responders (%) and the “ORR in PDL1 0 patients” value ([4]; NSCLC (CIT naïve), n=11) was 0 (0%) Responders (%). For the same compound, the “ORR in PDL1 IHC 1/2/3 patients” value ([4]; NSCLC (CIT naïve), n=14) was 2 (14%) Responders (%), the “ORR in IDO1 IHC 1/2/3 patients” value ([4]; NSCLC (CIT naïve), n=17) was 2 (12%) Responders (%) and the “ORR in all patients” value ([4]; NSCLC (CIT naïve), n=26) was 2 (8%) Responders (%). The “ORR in IDO1 0 patients” value ([4]; NSCLC (relapsed), n=1) was 0 (0%) Responders (%), the “ORR in PDL1 0 patients” value ([4]; NSCLC (relapsed), n=4) was 0 (0%) Responders (%) and the “ORR in PDL1 IHC 1/2/3 patients” value ([4]; NSCLC (relapsed), n=11) was 0 (0%) Responders (%). The “ORR in IDO1 IHC 1/2/3 patients” value ([4]; NSCLC (relapsed), n=14) was 0 (0%) Responders (%), the “ORR in all patients” value ([4]; NSCLC (relapsed), n=16) was 0 (0%) Responders (%) and the “ORR in IDO1 0 patients” value ([4]; RCC (CIT naïve), n=0) was 0 (0%) Responders (%). The “ORR in PDL1 0 patients” value ([4]; RCC (CIT naïve), n=0) was 0 (0%) Responders (%), the “ORR in IDO1 IHC 1/2/3 patients” value ([4]; RCC (CIT naïve), n=7) was 3 (43%) Responders (%) and the “ORR in PDL1 IHC 1/2/3 patients” value ([4]; RCC (CIT naïve), n=7) was 3 (43%) Responders (%). For the same compound, the “ORR in all patients” value ([4]; RCC (CIT naïve), n=7) was 3 (43%) Responders (%), the “ORR in IDO1 0 patients” value ([4]; TNBC (CIT naïve), n=3) was 0 (0%) Responders (%) and the “ORR in PDL1 0 patients” value ([4]; TNBC (CIT naïve), n=3) was 0 (0%) Responders (%). The “ORR in IDO1 IHC 1/2/3 patients” value ([4]; TNBC (CIT naïve), n=8) was 1 (12%) Responders (%), the “ORR in PDL1 IHC 1/2/3 patients” value ([4]; TNBC (CIT naïve), n=8) was 1 (12%) Responders (%) and the “ORR in all patients” value ([4]; TNBC (CIT naïve), n=11) was 1 (9%) Responders (%). For the same compound, the “ORR in IDO1 0 patients” value ([4]; UBC (CIT naïve), n=0) was 0 (0%) Responders (%), the “ORR in PDL1 0 patients” value ([4]; UBC (CIT naïve), n=0) was 0 (0%) Responders (%) and the “ORR in IDO1 IHC 1/2/3 patients” value ([4]; UBC (CIT naïve), n=6) was 2 (33%) Responders (%). For the same compound, the “ORR in PDL1 IHC 1/2/3 patients” value ([4]; UBC (CIT naïve), n=6) was 2 (33%) Responders (%) and the “ORR in all patients” value ([4]; UBC (CIT naïve), n=8) was 3 (38%) Responders (%).

In the case of NS(=O)(=O)NCCNc1nonc1C(=NO)Nc1ccc(F)c(Br)c1 [epacadostat], the mPFS (melanoma; epacadostat in combination with pembrolizumab) is listed as 4.7 mo.

For pembrolizumab, the mPFS (melanoma; pembrolizumab monotherapy) is given as 4.9 mo.
